One test relates to MCH receptors. Kind of test: MCH receptor activity class (method not given). Particulars: MCH receptor activity class 1-3 (percent of control at 10^-7 M or IC50).
Turning to `COc1cc([N+](=O)[O-])ccc1NC(=S)N[C@H]1CC[C@@H](Nc2nccc(N(C)C)n2)CC1` [compound 2314], the class was 3 (Class 3 The value of percent of control at 10^−7 M was more than 60% or the value of IC50 was more than 200 nM.).

The same test, now with this note: MCH receptor; class by percent of control at 10^-7 M or IC50.
Consider `CC(Oc1ccccc1)C(=O)NC[C@H]1CC[C@@H](Nc2cc(N(C)C)c3ccccc3n2)CC1` (relative stereo) [compound 176, N-[(cis-4-{[4-(dimethylamino)quinolin-2-yl]amino}cyclohexyl)methyl]-2-phenoxypropanamide], for which the class is listed as 3 (Class 3 The value of percent of control at 10^−7 M was more than 60% or the value of IC50 was more than 200 nM.).

For `CN(C)c1cc(N[C@H]2CC[C@@H](NC(=O)c3ccc(F)c(F)c3)CC2)nc2ccccc12` [compound 33, N-(cis-4-{[4-(dimethylamino)quinolin-2-yl]amino}cyclohexyl)-3,4-difluorobenzamide], the class is recorded as 1 (Class 1: The value of percent of control at 10^−7 M was less than 40% or the value of IC50 was less than 50 nM.).

As to `CCc1cccc(NC(=S)N[C@H]2CC[C@@H](Nc3nc4c(c(N(C)C)n3)CCCC4)CC2)c1` [compound 2042], the class is on record as 3 (Class 3 The value of percent of control at 10^−7 M was more than 60% or the value of IC50 was more than 200 nM.).

Still in this test, the particulars now being: activity class 1-3: percent of control at 10^-7 M or IC50.
For the compound `COC(=O)[C@H](CCSC)NC(=O)N[C@H]1CC[C@@H](Nc2nc3c(c(N(C)C)n2)CCCC3)CC1` (relative stereo) [compound 1699], the class is recorded as 3 (Class 3 The value of percent of control at 10^−7 M was more than 60% or the value of IC50 was more than 200 nM.).

Still in this test, the particulars now being: class 1-3 by percent of control at 10^-7 M or IC50.
Regarding `CN(C)c1nc(N[C@H]2CC[C@@H](NC(=O)c3cccnc3Oc3ccccc3)CC2)nc2c1CCCC2` [compound 571], the class is 2 (Class 2: The value of percent of control at 10^−7 M was from 40% to 60% or the value of IC′50 was from 50 nM to 200 nM.).

The same test, now with this note: class by percent of control at 10^-7 M or IC50.
As for `Cc1cc(C(=O)N[C@H]2CC[C@@H](Nc3cc(N(C)C)c4ccccc4n3)CC2)cc(C)c1[N+](=O)[O-]` [compound 774, N-(cis-4-{[4-(dimethylamino)quinolin-2-yl]amino}cyclohexyl)-3,5-dimethyl-4-nitrobenzamide], the class is given as 2 (Class 2: The value of percent of control at 10^−7 M was from 40% to 60% or the value of IC′50 was from 50 nM to 200 nM.).

Regarding `Cc1cc(Br)cc(C)c1NC(=S)N[C@H]1CC[C@@H](Nc2nc3c(c(N(C)C)n2)CCCC3)CC1` [compound 1763, N-(4-bromo-2,6-dimethylphenyl)-N′-(cis-4-{[4-(dimethylamino)-5,6,7,8-tetrahydroquinazolin-2-yl]amino}cyclohexyl)thiourea], the class was 1 (Class 1: The value of percent of control at 10^−7 M was less than 40% or the value of IC50 was less than 50 nM.).

Regarding `COc1ccc(CN[C@H]2CC[C@@H](Nc3nc4c(c(N(C)C)n3)CCCC4)CC2)c(OC)c1OC` [compound 1336], the class is recorded as 3 (Class 3 The value of percent of control at 10^−7 M was more than 60% or the value of IC50 was more than 200 nM.).

For the compound `COc1ccccc1/C=C/CN[C@H]1CC[C@@H](Nc2nc3c(c(N(C)C)n2)CCCC3)CC1` [compound 1354], the class is reported as 3 (Class 3 The value of percent of control at 10^−7 M was more than 60% or the value of IC50 was more than 200 nM.).

As to `Cc1cc(=O)oc2c(OCC(=O)N[C@H]3CC[C@@H](Nc4nccc(N(C)C)n4)CC3)cccc12` [compound 363], the class is 3 (Class 3 The value of percent of control at 10^−7 M was more than 60% or the value of IC50 was more than 200 nM.).

Consider `CN(C)c1ccnc(N[C@H]2CC[C@@H](NC(=O)c3cc(Cl)cc(Cl)c3NC(=O)C#Cc3ccccc3)CC2)n1` [compound 858], for which the class is reported as 2 (Class 2: The value of percent of control at 10^−7 M was from 40% to 60% or the value of IC′50 was from 50 nM to 200 nM.).

In the case of `CN(C)c1ccnc(N[C@H]2CC[C@@H](NC(=O)c3ccc(F)cc3)CC2)n1` [compound 255, N-(cis-4-{[4-(dimethylamino)pyrimidin-2-yl]amino}cyclohexyl)-4-fluorobenzamide], the class is given as 3 (Class 3 The value of percent of control at 10^−7 M was more than 60% or the value of IC50 was more than 200 nM.).

With `CN(C)c1nc(N[C@H]2CC[C@@H](CNCc3c[nH]nc3-c3ccc(C(F)(F)F)cc3)CC2)nc2c1CCCC2` [compound 1377], the class was 2 (Class 2: The value of percent of control at 10^−7 M was from 40% to 60% or the value of IC′50 was from 50 nM to 200 nM.).

Take `CN(C)c1ccnc(N[C@H]2CC[C@@H](NC(=O)c3cc(C(F)(F)F)ccc3F)CC2)n1` [compound 283]: the class is recorded as 3 (Class 3 The value of percent of control at 10^−7 M was more than 60% or the value of IC50 was more than 200 nM.).

On to `CC(C)c1ccccc1NC(=O)N[C@H]1CC[C@@H](Nc2nccc(N(C)C)n2)CC1` [compound 2200], for which the class was 3 (Class 3 The value of percent of control at 10^−7 M was more than 60% or the value of IC50 was more than 200 nM.).

Regarding `COc1cc(OC)c(NC(=O)N[C@H]2CC[C@@H](Nc3nc4c(c(N(C)C)n3)CCCC4)CC2)cc1Cl` [compound 1727], the class is 1 (Class 1: The value of percent of control at 10^−7 M was less than 40% or the value of IC50 was less than 50 nM.).

As to `CN(C)c1nc(N[C@H]2CC[C@@H](CNC(=O)c3cc(C(F)(F)F)cc(C(F)(F)F)c3)CC2)nc2c1CCCC2` [compound 640], the class is listed as 3 (Class 3 The value of percent of control at 10^−7 M was more than 60% or the value of IC50 was more than 200 nM.).

As for `COc1cc(C(=O)N[C@H]2CC[C@@H](Nc3nc4c(c(N(C)C)n3)CCCC4)CC2)ccc1[N+](=O)[O-]` [compound 966], the class is recorded as 1 (Class 1: The value of percent of control at 10^−7 M was less than 40% or the value of IC50 was less than 50 nM.).

Consider `Cc1ccccc1CNC(=O)N[C@H]1CC[C@@H](Nc2cc(N(C)C)c3ccccc3n2)CC1` [compound 2146], for which the class is reported as 3 (Class 3 The value of percent of control at 10^−7 M was more than 60% or the value of IC50 was more than 200 nM.).

On to `C[C@H](NC(=O)c1ccccc1C(=O)N[C@H]1CC[C@@H](Nc2nccc(N(C)C)n2)CC1)c1ccccc1` [compound 897], for which the class is on record as 3 (Class 3 The value of percent of control at 10^−7 M was more than 60% or the value of IC50 was more than 200 nM.).

`CSc1sc(C(=O)N[C@H]2CC[C@@H](Nc3cc(N(C)C)c4ccccc4n3)CC2)c(Cl)c1S(=O)(=O)C(C)C` [compound 765]: the class is recorded as 3 (Class 3 The value of percent of control at 10^−7 M was more than 60% or the value of IC50 was more than 200 nM.).

For `COc1ccc(F)cc1CNC[C@H]1CC[C@@H](Nc2cc(N(C)C)c3ccccc3n2)CC1` [compound 1173], the class is 3 (Class 3 The value of percent of control at 10^−7 M was more than 60% or the value of IC50 was more than 200 nM.).

On to `COc1cc(CNC[C@H]2CC[C@@H](Nc3nccc(N(C)C)n3)CC2)cc(Br)c1OC` [compound 1310], for which the class is on record as 1 (Class 1: The value of percent of control at 10^−7 M was less than 40% or the value of IC50 was less than 50 nM.).

As for `CN(C)c1cc(N[C@H]2CC[C@@H](NC(=O)c3cc([N+](=O)[O-])cn3C)CC2)nc2ccccc12` [compound 768, N-(cis-4-{[4-(dimethylamino)quinolin-2-yl]amino}cyclohexyl)-1-methyl-4-nitro-1H-pyrrole-2-carboxamide], the class is 1 (Class 1: The value of percent of control at 10^−7 M was less than 40% or the value of IC50 was less than 50 nM.).

The values are drawn from US20050197350A1, “Novel quinoline, tetrahydroquinazoline, and pyrimidine derivatives and methods of treatment related to the use thereof” (TAISHO PHARMACEUTICAL CO., LTD., priority 2003, published 2005).
